Results published in article PMC12423301, “Astrocytic monoamine oxidase B (MAOB)–gamma-aminobutyric acid (GABA) axis as a molecular brake on repair following spinal cord injury” (Signal Transduction and Targeted Therapy, 2025).

Legend:
[1] = Phase 1 clinical trial: treatment-emergent adverse events; format: in vivo, human
Description: Eligibility criteria included healthy adults (aged 19–45) for the SAD and MAD cohorts, and healthy elderly subjects (aged 65–85) for cohort 11. The participants were excluded if they met the following criteria: serum AST or ALT greater than 60 IU/L, total bilirubin greater than 1.8 mg/dL, creatinine phosphokinase (CPK) levels greater than 405 IU/L, creatinine clearance calculated by the Chronic Kidney Disease Epidemiology Collaboration (CKD-EPI) equation less than 60 mL/min/1.73 m². At the time of randomization, all subjects were required to be free from any clinically significant medical conditions. The study was approved by the Seoul National University Hospital institutional review board and conducted in accordance with the Declaration of Helsinki and Good Clinical Practice guidelines.
Subjects who met the eligibility criteria were admitted to the Seoul National University Hospital Clinical Trial Center one day prior to the first dose administration. […] After administration of the last dose, subjects were discharged 72 h later and visited the outpatient clinic for follow-up on three consecutive days. Pharmacokinetics and safety were monitored until the end of the study, lasting up to 18 days after the last dose.
The primary endpoint was the incidence of TEAEs by dose group. […] Those deemed to have a causal relationship with the drug were classified as ADRs. Dose escalation proceeded under blinded conditions, contingent on the absence of dose-limiting toxicity, as reviewed by a safety review committee.

[2] = Genetic toxicology (reverse mutation, chromosomal aberration, micronucleus)
Description: Protocol No. NB_KDS_ADP1_21 Confidential administration of the test substance to rats at a dose of 50-200 mg/kg daily for 2 weeks, there were no deaths.
As a result of oral administration to rats at doses of 30, 50, 75 and 100 mg/kg once daily for 4 weeks, […]
testis, epididymis and lungs. Renal epithelial hyperplasia and inflammatory cells infiltration in the renal pelvis observed in the male and female dose groups of 75 mg/kg or more, germ cell degeneration/loss and seminiferous tubules atrophy observed in the male dose groups of 75 mg/kg or more, and vacuole/degeneration of outer medullary tubules and basophilic tubules observed in the female dose groups were judged to be adverse effects due to administration of the test substance. Proximal tubular hyaline granules in the kidney, basophilic tubules, testicular germ cell degeneration/loss, and alveolar macrophage aggregation in the lungs(females) were observed even after a 2-week recovery period. Accordingly, in repeated administrations of rats for 4 weeks, the NOAEL(No Observed Adverse Effect Level) was determined to be 50 mg/kg/day for males and 30 mg/kg for females. As a result of repeated oral administrations of 0, 25, 50 or 100 mg/kg/day for 2 weeks to Cynomolgus […]
male dose group of 50 mg/kg/day, and a distal tubule/collecting duct dilatation and papillary duct epithelial cell […]
the NOAEL was judged as 40 mg/kg for both males and females. As a result of the safety pharmacology test, […]
the genetic toxicology, the reverse mutation test, the chromosomal aberration assay, and the micronucleus assay […]
In a pharmacokinetic study, plasma PK parameters were measured after a single oral administration of […]
a result of measuring excretion into urine, feces, expiration, and bile, 6.9% was excreted in urine and 48.5% in feces, respectively, up to 168 hours after administration. Excretion to air through respiration was about 0.0% until 48 hours after administration, and 44.1% of the administered radioactivity concentration was present in the body (carcass). […]

[3] = MAD, healthy elderly, Cohort 11, 120 mg, n = 6
[4] = MAD, young healthy adults, Cohort 7, 60 mg, n = 6
[5] = MAD, young healthy adults, Cohort 8, 120 mg, n = 6
[6] = MAD, young healthy adults, Cohort 9, 240 mg, n = 6
[7] = MAD, young healthy adults, Cohort 10, 480 mg, n = 6
[8] = SAD, young healthy adults, Cohort 1, 30 mg, n = 6
[9] = SAD, young healthy adults, Cohort 2, 60 mg, n = 6
[10] = SAD, young healthy adults, Cohort 3, 120 mg, fasting, n = 6
[11] = SAD, young healthy adults, Cohort 3, 120 mg, fed, n = 5
[12] = SAD, young healthy adults, Cohort 4, 240 mg, n = 6
[13] = SAD, young healthy adults, Cohort 5, 480 mg, n = 6
[14] = SAD, young healthy adults, Cohort 6, 960 mg, n = 6

CS(=O)(=O)O.C[C@H](NCc1ccc(-c2ccc(C(F)(F)F)cc2)cc1)C(N)=O [KDS2010, (S)-2-(((4’-Trifluoromethylbiphenyl-4-yl)methyl)amino)propanamide methane-sulfonate]
effect of a high-fat meal on the frequency of TEAEs ([1]; 120 mg): did not affect | TEAE: Abdominal discomfort [1, 3]: 2 (33.3) number of subjects (%) | TEAE: Constipation [1, 3]: 2 (33.3) number of subjects (%) | TEAE: Diarrhea [1, 3]: 2 (33.3) number of subjects (%) | TEAE: Dizziness [1, 3]: 1 (16.7) number of subjects (%) | TEAE: Hematocrit decreased [1, 3]: 2 (33.3) number of subjects (%) | TEAE: Red blood cell count decreased [1, 3]: 1 (16.7) number of subjects (%) | TEAEs: Any [1, 3]: 5 (83.3) number of subjects (%) | TEAEs: Serious [1, 3]: 0 number of subjects (%) | TEAE: Cough [1, 4]: 1 (16.7) number of subjects (%) | TEAE: Rhinorrhoea [1, 4]: 1 (16.7) number of subjects (%) | TEAEs: Any [1, 4]: 2 (33.3) number of subjects (%) | TEAEs: Serious [1, 4]: 0 number of subjects (%) | TEAEs: Any [1, 5]: 0 number of subjects (%) | TEAEs: Serious [1, 5]: 0 number of subjects (%) | TEAE: Hypersomnia [1, 6]: 1 (16.7) number of subjects (%) | TEAEs: Any [1, 6]: 1 (16.7) number of subjects (%) | TEAEs: Serious [1, 6]: 0 number of subjects (%) | TEAE: Conjunctival hyperemia [1, 7]: 1 (16.7) number of subjects (%) | TEAE: Oropharyngeal pain [1, 7]: 1 (16.7) number of subjects (%) | TEAEs: Any [1, 7]: 2 (33.3) number of subjects (%) | TEAEs: Serious [1, 7]: 0 number of subjects (%) | TEAEs: Any [1, 8]: 2 (33.3) number of subjects (%) | TEAEs: Serious [1, 8]: 0 number of subjects (%) | TEAE: Cough [1, 9]: 1 (16.7) number of subjects (%) | TEAE: Oropharyngeal pain [1, 9]: 1 (16.7) number of subjects (%) | TEAEs: Any [1, 9]: 1 (16.7) number of subjects (%) | TEAEs: Serious [1, 9]: 0 number of subjects (%) | TEAE: Neutrophil count increased [1, 10]: 1 (16.7) number of subjects (%) | TEAEs: Any [1, 10]: 3 (50.0) number of subjects (%) | TEAEs: Serious [1, 10]: 0 number of subjects (%) | TEAE: Neutrophil count increased [1, 11]: 2 (40.0) number of subjects (%) | TEAEs: Any [1, 11]: 3 (60.0) number of subjects (%) | TEAEs: Serious [1, 11]: 0 number of subjects (%) | TEAE: Dry eye [1, 12]: 1 (16.7) number of subjects (%) | TEAE: Neutrophil count increased [1, 12]: 1 (16.7) number of subjects (%) | TEAE: Ocular discomfort [1, 12]: 1 (16.7) number of subjects (%) | TEAE: Swelling of the eyelid [1, 12]: 1 (16.7) number of subjects (%) | TEAE: White blood cell count increased [1, 12]: 1 (16.7) number of subjects (%) | TEAEs: Any [1, 12]: 2 (33.3) number of subjects (%) | TEAEs: Serious [1, 12]: 0 number of subjects (%) | TEAE: Nasal congestion [1, 13]: 1 (16.7) number of subjects (%) | TEAE: Rhinorrhoea [1, 13]: 1 (16.7) number of subjects (%) | TEAEs: Any [1, 13]: 2 (33.3) number of subjects (%) | TEAEs: Serious [1, 13]: 0 number of subjects (%) | TEAE: Conjunctival hyperemia [1, 14]: 1 (16.7) number of subjects (%) | TEAE: Dizziness [1, 14]: 1 (16.7) number of subjects (%) | TEAE: Dry eye [1, 14]: 1 (16.7) number of subjects (%) | TEAE: Nasal congestion [1, 14]: 2 (33.3) number of subjects (%) | TEAE: Rhinorrhoea [1, 14]: 1 (16.7) number of subjects (%) | TEAE: Somnolence [1, 14]: 2 (33.3) number of subjects (%) | TEAEs: Any [1, 14]: 4 (66.7) number of subjects (%) | TEAEs: Serious [1, 14]: 0 number of subjects (%) | number of TEAEs ([1]; all subjects on KDS2010): 56 TEAEs | number of subjects with TEAEs ([1]; all subjects on KDS2010): 25 subjects | proportion of subjects with TEAEs ([1]; all subjects on KDS2010): 37.9% | autonomic nervous system TEAEs ([1]; higher doses (240–960 mg)): TEAEs related to the autonomic nervous system were observed | incidence of TEAEs vs dose ([1]; phase 1): tended to increase with dose | serious adverse events ([1]; phase 1, all cohorts): no serious adverse events | chromosomal aberration assay [2]: negative | micronucleus assay [2]: negative | reverse mutation test [2]: negative
